Laboratory results reported in paper PMC11191095, “QSAR Reveals Decreased Lipophilicity of Polar Residues Determines the Selectivity of Antimicrobial Peptide Activity” (ACS Omega, 2024).
Where a SMILES comes first, the peptide text is derived from it.

What was measured:
Assay in all cases: microbe, parasite or virus in culture
[1] = system: E. coli LEC001; assay type: cell-based, Escherichia coli; details: E. coli LEC001 (R)
Method in brief: (§1)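 Peptides 128→2 μg/mL, 2-fold series; inoculum ~5 × 10^5 CFU/mL from overnight culture (OD600 0.01, mixed 1:1). MHB non-cation-adjusted for bacteria, RPMI 1640 + 2% glucose for fungi. 37 °C, 20 h, OD600. MIC50/MIC90 at 50%/90% inhibition; n ≥ 3.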

[2] = system: E. coli NCTC 12923; assay type: cell-based, Escherichia coli; details: E. coli NCTC 12923 (S)
Method in brief: as §1

[3] = system: P. aeruginosa NCTC 13437; assay type: cell-based, Pseudomonas aeruginosa; details: P. aeruginosa NCTC 13437 (R)
Method in brief: as §1

[4] = system: A. baumannii ATCC 17978; assay type: cell-based, Acinetobacter baumannii; details: A. baumannii ATCC 17978 (S)
Method in brief: as §1

[5] = system: A. baumannii AYE; assay type: cell-based, Acinetobacter baumannii; details: A. baumannii AYE (R)
Method in brief: as §1

[6] = system: K. pneumoniae M6; assay type: cell-based, Klebsiella pneumoniae; details: K. pneumoniae M6 (S)
Method in brief: as §1

[7] = system: K. pneumoniae NCTC 13368; assay type: cell-based, Klebsiella pneumoniae; details: K. pneumoniae NCTC 13368 (R)
Method in brief: as §1

[8] = system: S. aureus (MRSA) NCTC 13616; assay type: cell-based, Staphylococcus aureus; details: S. aureus (MRSA) NCTC 13616 (R)
Method in brief: as §1

[9] = system: S. aureus (MRSA) USA300; assay type: cell-based, Staphylococcus aureus; details: S. aureus (MRSA) USA300 (R)
Method in brief: as §1

[10] = system: S. aureus (MSSA) ATCC 9144; assay type: cell-based, Staphylococcus aureus; details: S. aureus (MSSA) ATCC 9144 (S)
Method in brief: as §1

[11] = system: C. auris TDG 1912; assay type: cell-based, Candida auris; details: C. auris TDG 1912
Method in brief: as §1

[12] = system: C. albicans NCPF 3281; assay type: cell-based; details: C. albicans NCPF 3281
Method in brief: as §1

[13] = system: C. glabrata NCPF 8018; assay type: cell-based; details: C. glabrata NCPF 8018
Method in brief: as §1

[14] = system: C. krusei NCPF 3876; assay type: cell-based; details: C. krusei NCPF 3876
Method in brief: as §1

[15] = system: C. parapsilosis NCPF 3209; assay type: cell-based; details: C. parapsilosis NCPF 3209
Method in brief: as §1

[16] = system: C. tropicalis NCPF 8760; assay type: cell-based; details: C. tropicalis NCPF 8760
Method in brief: as §1

[17] = MHB, 37 °C, 20 h, OD600, min. three biological repeats
[18] = MHB, ~5×10^5 CFU/mL, 37 °C, 20 h, OD600, min. three biological repeats
[19] = 50% growth inhibition, RPMI 1640 + 2% glucose, 37 °C, 20 h, OD600
[20] = 90% growth inhibition, RPMI 1640 + 2% glucose, 37 °C, 20 h, OD600
[21] = 50% growth inhibition, RPMI 1640 + 2% glucose, 37 °C, 20 h
[22] = 90% growth inhibition, RPMI 1640 + 2% glucose, 37 °C, 20 h

## CC[C@H](C)[C@H](NC(=O)CNC(=O)[C@@H](N)CCCNC(=N)N)C(=O)N[C@@H](CCCNC(=N)N)C(=O)NCC(=O)N[C@@H](Cc1ccc(O)cc1)C(=O)N[C@@H](CCCCN)C(=O)NCC(=O)NCC(=O)N[C@@H](Cc1ccc(O)cc1)C(=O)N[C@@H](CS)C(=O)N[C@H](C(=O)NCC(=O)N[C@@H](CCCNC(=N)N)C(=O)N[C@@H](Cc1ccccc1)C(=O)N[C@@H](CCCCN)C(=O)N[C@@H](CCC(N)=O)C(=O)N[C@H](C(=O)N[C@@H](CS)C(=O)N[C@@H](CCCCN)C(=O)N[C@@H](CS)C(=O)N[C@@H](Cc1ccc(O)cc1)C(=O)O)[C@@H](C)O)[C@@H](C)O [OmDefB] (H-RGIRGYKGGYCTGRFKQTCKCY-OH; N-terminus and C-terminus assumed)
[1]; [17]
  Modal MIC: > 128 µg/mL
[1]; shown in µM
  Modal MIC: > 49.9 µM
[2]; [18]
  Modal MIC: > 128 µg/mL
[2]; shown in µM
  Modal MIC: > 49.9 µM
[3]; [17]
  Modal MIC: > 128 µg/mL
[3]; shown in µM
  Modal MIC: > 49.9 µM
[4]; [17]
  Modal MIC: > 128 µg/mL
[4]; shown in µM
  Modal MIC: > 49.9 µM
[5]; [17]
  Modal MIC: > 128 µg/mL
[5]; shown in µM
  Modal MIC: > 49.9 µM
[6]; [17]
  Modal MIC: > 128 µg/mL
[6]; shown in µM
  Modal MIC: > 49.9 µM
[7]; [17]
  Modal MIC: > 128 µg/mL
[7]; shown in µM
  Modal MIC: > 49.9 µM
[8]; [17]
  Modal MIC: > 128 µg/mL
[8]; shown in µM
  Modal MIC: > 49.9 µM
[9]; [17]
  Modal MIC: > 128 µg/mL
[9]; shown in µM
  Modal MIC: > 49.9 µM
[10]; [17]
  Modal MIC: > 128 µg/mL
[10]; shown in µM
  Modal MIC: > 49.9 µM
[11]; [19]
  Modal MIC50: > 128 µg/mL
[11]; [20]
  Modal MIC90: > 128 µg/mL
[11]; shown in µM
  Modal MIC50: > 49.9 µM
  Modal MIC90: > 49.9 µM
[12]; [21]
  Modal MIC50: > 128 µg/mL
[12]; [22]
  Modal MIC90: > 128 µg/mL
[12]; shown in µM
  Modal MIC50: > 49.9 µM
  Modal MIC90: > 49.9 µM
[13]; [21]
  Modal MIC50: > 128 µg/mL
[13]; [22]
  Modal MIC90: > 128 µg/mL
[13]; shown in µM
  Modal MIC50: > 49.9 µM
  Modal MIC90: > 49.9 µM
[14]; [21]
  Modal MIC50: > 128 µg/mL
[14]; [22]
  Modal MIC90: > 128 µg/mL
[14]; shown in µM
  Modal MIC50: > 49.9 µM
  Modal MIC90: > 49.9 µM
[15]; [21]
  Modal MIC50: > 128 µg/mL
[15]; [22]
  Modal MIC90: > 128 µg/mL
[15]; shown in µM
  Modal MIC50: > 49.9 µM
  Modal MIC90: > 49.9 µM
[16]; [21]
  Modal MIC50: > 128 µg/mL
[16]; [22]
  Modal MIC90: > 128 µg/mL
[16]; shown in µM
  Modal MIC50: > 49.9 µM
  Modal MIC90: > 49.9 µM

## CC[C@H](C)[C@H](NC(=O)[C@@H](N)Cc1c[nH]c2ccccc12)C(=O)N[C@@H](CCCCN)C(=O)N[C@@H](CO)C(=O)N[C@H](C(=O)N[C@@H](C)C(=O)N[C@@H](CCCCN)C(=O)N[C@@H](CCCCN)C(N)=O)[C@@H](C)O [Opis8a] (H-WIKSTAKK-NH2)
[1]; [17]
  Modal MIC: > 128 µg/mL
[1]; shown in µM
  Modal MIC: > 133.2 µM
[2]; [18]
  Modal MIC: > 128 µg/mL
[2]; shown in µM
  Modal MIC: > 133.2 µM
[3]; [17]
  Modal MIC: > 128 µg/mL
[3]; shown in µM
  Modal MIC: > 133.2 µM
[4]; [17]
  Modal MIC: > 128 µg/mL
[4]; shown in µM
  Modal MIC: > 133.2 µM
[5]; [17]
  Modal MIC: > 128 µg/mL
[5]; shown in µM
  Modal MIC: > 133.2 µM
[6]; [17]
  Modal MIC: > 128 µg/mL
[6]; shown in µM
  Modal MIC: > 133.2 µM
[7]; [17]
  Modal MIC: > 128 µg/mL
[7]; shown in µM
  Modal MIC: > 133.2 µM
[8]; [17]
  Modal MIC: > 128 µg/mL
[8]; shown in µM
  Modal MIC: > 133.2 µM
[9]; [17]
  Modal MIC: > 128 µg/mL
[9]; shown in µM
  Modal MIC: > 133.2 µM
[10]; [17]
  Modal MIC: > 128 µg/mL
[10]; shown in µM
  Modal MIC: > 133.2 µM
[11]; [19]
  Modal MIC50: > 128 µg/mL
[11]; [20]
  Modal MIC90: > 128 µg/mL
[11]; shown in µM
  Modal MIC50: > 133.2 µM
  Modal MIC90: > 133.2 µM
[12]; [21]
  Modal MIC50: > 128 µg/mL
[12]; [22]
  Modal MIC90: > 128 µg/mL
[12]; shown in µM
  Modal MIC50: > 133.2 µM
  Modal MIC90: > 133.2 µM
[13]; [21]
  Modal MIC50: > 128 µg/mL
[13]; [22]
  Modal MIC90: > 128 µg/mL
[13]; shown in µM
  Modal MIC50: > 133.2 µM
  Modal MIC90: > 133.2 µM
[14]; [21]
  Modal MIC50: > 128 µg/mL
[14]; [22]
  Modal MIC90: > 128 µg/mL
[14]; shown in µM
  Modal MIC50: > 133.2 µM
  Modal MIC90: > 133.2 µM
[15]; [21]
  Modal MIC50: > 128 µg/mL
[15]; [22]
  Modal MIC90: > 128 µg/mL
[15]; shown in µM
  Modal MIC50: > 133.2 µM
  Modal MIC90: > 133.2 µM
[16]; [21]
  Modal MIC50: > 128 µg/mL
[16]; [22]
  Modal MIC90: > 128 µg/mL
[16]; shown in µM
  Modal MIC50: > 133.2 µM
  Modal MIC90: > 133.2 µM

## CC[C@H](C)[C@H](N)C(=O)N[C@@H](CCCNC(=N)N)C(=O)NCC(=O)N[C@@H](Cc1ccc(O)cc1)C(=O)N[C@@H](CCCCN)C(=O)NCC(=O)NCC(=O)N[C@@H](Cc1ccc(O)cc1)C(=O)N[C@@H](CS)C(=O)N[C@@H](CCCCN)C(N)=O [Os(3-12)a] (H-IRGYKGGYCK-NH2)
[1]; [17]
  Modal MIC: > 128 µg/mL
[1]; shown in µM
  Modal MIC: > 112 µM
[2]; [18]
  Modal MIC: > 128 µg/mL
[2]; shown in µM
  Modal MIC: > 112 µM
[3]; [17]
  Modal MIC: > 128 µg/mL
[3]; shown in µM
  Modal MIC: > 112 µM
[4]; [17]
  Modal MIC: > 128 µg/mL
[4]; shown in µM
  Modal MIC: > 112 µM
[5]; [17]
  Modal MIC: > 128 µg/mL
[5]; shown in µM
  Modal MIC: > 112 µM
[6]; [17]
  Modal MIC: > 128 µg/mL
[6]; shown in µM
  Modal MIC: > 112 µM
[7]; [17]
  Modal MIC: > 128 µg/mL
[7]; shown in µM
  Modal MIC: > 112 µM
[8]; [17]
  Modal MIC: > 128 µg/mL
[8]; shown in µM
  Modal MIC: > 112 µM
[9]; [17]
  Modal MIC: > 128 µg/mL
[9]; shown in µM
  Modal MIC: > 112 µM
[10]; [17]
  Modal MIC: > 128 µg/mL
[10]; shown in µM
  Modal MIC: > 112 µM
[11]; [19]
  Modal MIC50: > 128 µg/mL
[11]; [20]
  Modal MIC90: > 128 µg/mL
[11]; shown in µM
  Modal MIC50: > 112 µM
  Modal MIC90: > 112 µM
[12]; [21]
  Modal MIC50: > 128 µg/mL
[12]; [22]
  Modal MIC90: > 128 µg/mL
[12]; shown in µM
  Modal MIC50: > 112 µM
  Modal MIC90: > 112 µM
[13]; [21]
  Modal MIC50: > 128 µg/mL
[13]; [22]
  Modal MIC90: > 128 µg/mL
[13]; shown in µM
  Modal MIC50: > 112 µM
  Modal MIC90: > 112 µM
[14]; [21]
  Modal MIC50: > 128 µg/mL
[14]; [22]
  Modal MIC90: > 128 µg/mL
[14]; shown in µM
  Modal MIC50: > 112 µM
  Modal MIC90: > 112 µM
[15]; [21]
  Modal MIC50: > 128 µg/mL
[15]; [22]
  Modal MIC90: > 128 µg/mL
[15]; shown in µM
  Modal MIC50: > 112 µM
  Modal MIC90: > 112 µM
[16]; [21]
  Modal MIC50: > 128 µg/mL
[16]; [22]
  Modal MIC90: > 128 µg/mL
[16]; shown in µM
  Modal MIC50: > 112 µM
  Modal MIC90: > 112 µM
